One compound from US7511151B2 (priority 2002, dated 2009) can be followed below.

Some results are limits rather than exact numbers.

This experiment deals with Erysiphe graminis f. sp. hordei. Particulars: in vivo.

For `CC#CC(C)(C)NC(=O)C(OCC)Oc1cncc(Cl)c1` (stereo not shown) [1 (1), 2-(5-chloropyridyl-3-oxy)-2-(ethoxy)-N-(2-methylpent-3-yn-2-yl) acetamide], the control of disease is listed as more than 60%.
